Measurements reported in ChEMBL document CHEMBL5143540, “Design, synthesis and biological evaluation of nitrofuran-1,3,4-oxadiazole hybrids as new antitubercular agents” (Bioorg Med Chem, 2022).
Values after ≈ are worked out from the molar mass of the structure shown.

system: Mycobacterium tuberculosis; assay: Antitubercular activity against multi-drug resistant Mycobacterium tuberculosis 16833 assessed as reduction in bacterial growth incubated for 7 days by Alamar blue assay; format: functional; conditions: Mycobacterium tuberculosis, 16833, 168 h; time 7 day

Q: For `COc1ccc(-c2nnc(CNC(=O)c3ccc([N+](=O)[O-])o3)o2)cc1`, which MIC is on record?
A: 3.58 µg/mL (≈ 10.4 µM)

Q: `CC(C)(C)c1ccc(-c2nnc(CNC(=O)c3ccc([N+](=O)[O-])o3)o2)cc1` was tested. Which MIC did it give?
A: 1.85 µg/mL (≈ 5 µM)

Q: `CC(C)(C)c1ccc(-c2nnc(-c3ccc([N+](=O)[O-])o3)o2)cc1` was tested. Which MIC did it give?
A: > 32 µg/mL

Q: How did the MIC turn out when `O=C(NCc1nnc(-c2ccc(OC(F)(F)F)cc2)o1)c1ccc([N+](=O)[O-])o1` was run?
A: 1.96 µg/mL (≈ 4.91 µM)

Q: For `O=C(Nc1nnc(-c2ccc(Br)cc2)o1)c1ccc([N+](=O)[O-])o1`, which MIC is on record?
A: 1.44 µg/mL (≈ 3.8 µM)

Q: For `O=C(NCc1nnc(-c2ccc(C(F)(F)F)cc2)o1)c1ccc([N+](=O)[O-])o1`, which MIC is on record?
A: 1.93 µg/mL (≈ 5.04 µM)

Q: For `NNC(=O)c1ccncc1` [ISONIAZID], which MIC is on record?
A: > 32 µg/mL

Q: `CO[C@H]1/C=C/O[C@@]2(C)Oc3c(C)c(O)c4c(O)c(c(/C=N/N5CCN(C)CC5)c(O)c4c3C2=O)NC(=O)/C(C)=C\C=C\[C@H](C)[C@H](O)[C@@H](C)[C@@H](O)[C@@H](C)[C@H](OC(C)=O)[C@@H]1C` [RIFAMPIN] was tested. Which MIC did it give?
A: > 32 µg/mL
